According to patent publication US20060270640A1, “Method of preventing, medicating, and/or treating hypocalcemia of domestic mammal” (Mercian Corporation, priority 2004, published 2006):
“And” between values parts separate entries of the source, which are not always exact repeats. Equal entries are not always repeated. Where two headings read alike, the source gives them in different places.

Legend:
[1] = Dose-response test of 1,25-(OH)2D3, intravaginal vs intravenous: calcium, inorganic phosphorus, magnesium in plasma (Example 3); format: in vivo, cow
Procedure: (§1) Hereinafter, the present invention will further be described with reference to Examples and Comparative Example. However, the present invention is not intended to be limited to them by any means. In the examples described below, a 1,25-(OH)2D3 concentration in plasma was determined using a radioimmunoassay kit (1,25-(OH)2D RIA kit, Immunodiagnostic Systems Limited, UK). The Ca concentrations, inorganic phosphorus (iP) concentrations, and magnesium (Mg) concentrations in plasma and urine were determined by orthocresolphthalein complexone (O-CPC), molybdenum (Mo), and xylidyl blue methods, respectively. A creatinine concentration in urine was determined by a Jaffe method. Calcium (Ca), inorganic phosphorus (iP), and magnesium (Mg) concentrations in urine were indicated in the ratios relative to creatinine (Cre) (Ca/Cre, iP/Cre, and Mg/Cre, respectively).
(§2) The dose-response test of 1,25-(OH)2D3 by an intravaginal administration route was performed with five 3 to 9-year-old ovariectomized Holstein cows having body weights of 616 to 804 kg as test animals.
(§3) The cows were hitched to a partition after and provided with 5.3 kg of timothy hay, 0.18 kg of alfalfa hay, 0.71 kg of beet pulp pellet, and 1.7 kg of commercially-available grain mix on a daily basis. The cows were measured on a DM basis and freely provided with water. A daily mineral intake was set to 48.4 g for calcium, 20.2 g of inorganic phosphorus, and 12.7 g for magnesium, which sufficiently exceeded the NRC recommendation.
(§4) To the five cows, 1,25-(OH)2D3 was respectively administered at 0.125, 0.25, 0.5, and 1.0 μg/kg (by body weight) as an intravaginal dose level and 1.0 μg/kg (by body weight) as an intravenous injection dose level at an interval of 2 weeks or more according to a 5×5 Latin square design.
(§5) The 1,25-(OH)2D3 (manufactured by Mercian Corporation) used was in the form of crystalline powder, which was dissolved in 99% ethanol at 200 μg/mL and cryopreserved at −20° C. until use.
(§6) A drug composed of 5 mL of 20% ethanol solution containing 1,25-(OH)2D3 at 0.125, 0.25, 0.5, or 1.0 μg/kg (by body weight) was administered to a vaginal lumen using a Split Universal Sheath (IMV Int. CO., France) by a rectovaginal cavity method. The vulva was then bonded with an adhesive in order to prevent the 1,25-(OH)2D3 solution from being unintentionally excreted from the vaginal lumen. Intravenous administration was performed using a cannula (14-ga cannula for animals, manufactured by Nipro Medical Industries Ltd.) mounted in advance for the collection of a blood sample.
(§7) A heparinized blood sample was collected through the cannula immediately before the administration of 1,25-(OH)2D3 (0 hour) and at 2, 4, 6, 12, 24, 48, 72, 96, and 120 hours after administration.
(§8) Next, the blood was immediately centrifuged, and 1,25-(OH)2D3, calcium, inorganic phosphorus, and magnesium concentrations in plasma were determined.

[2] = intravenous, four dose levels (30, 90, 270, and 600 μg); increase not directly related to dose; cited from earlier work
[3] = Dose-response test of 1,25-(OH)2D3, intravaginal vs intravenous: 1,25-(OH)2D3 in plasma and bioavailability (Example 3); format: in vivo, cow; conditions: for concentration at 0 h: read-out: 1,25-(OH)2D3 level in plasma
Procedure: as §1, §2, §3, §4, §5, §6, §7, §8
It is noted that the bioavailability was determined by comparing an area under the plasma concentration-time curve (AUC) between the cow to which 1,25-(OH)2D3 was intravaginally administered at 1.0 μg/kg (by body weight) and the cow to which the same amount of 1,25-(OH)2D3 was intravenously administered, and a AUC ratio between intravaginal administration and intravenous administration was indicated by percentage.

[4] = 0 hour, intravaginal 0.125 μg/kg
[5] = 0 hour, intravaginal 0.25 μg/kg
[6] = 24 hours after intravaginal 0.125 μg/kg
[7] = 24 hours after intravaginal 1.0 μg/kg
[8] = intravaginal, four doses 0.125-1.0 μg/kg

Compound: C=C1/C(=C\C=C2/CCC[C@]3(C)[C@@H]([C@H](C)CCCC(C)(C)O)CC[C@@H]23)C[C@@H](O)C[C@@H]1O [1,25-(OH)2D3, 1,25-dihydroxyvitamin D3]
- calcium concentration in plasma [1, 4]: 8.9 ± 0.5 mg/dL
- inorganic phosphorus concentration in plasma [1, 4]: 5.3 ± 1.0 mg/dL
- magnesium concentration in plasma [1, 4]: 2.2 ± 0.2 mg/dL
- calcium concentration in plasma [1, 5]: 8.9 ± 0.4 mg/dL
- inorganic phosphorus level in plasma [1, 5]: 4.7 ± 0.6 mg/dL
- magnesium concentration in plasma [1, 5]: 2.0 ± 0.2 mg/dL
- calcium concentration in plasma ([1]; 0 hour, intravaginal 0.5 μg/kg): 8.9 ± 0.2 mg/dL
- inorganic phosphorus concentration in plasma ([1]; 0 hour, intravaginal 0.5 μg/kg): 5.3 ± 0.6 mg/dL
- magnesium concentration in plasma ([1]; 0 hour, intravaginal 0.5 μg/kg): 2.2 ± 0.2 mg/dL
- calcium concentration in plasma ([1]; 0 hour, intravaginal 1.0 μg/kg): 8.8 ± 0.7 mg/dL
- inorganic phosphorus concentration in plasma ([1]; 0 hour, intravaginal 1.0 μg/kg): 5.4 ± 1.3 mg/dL
- magnesium concentration in plasma ([1]; 0 hour, intravaginal 1.0 μg/kg): 2.1 ± 0.1 mg/dL
- calcium concentration in plasma ([1]; 0 hour, intravenous 1.0 μg/kg): 8.8 ± 0.5 mg/dL
- inorganic phosphorus concentration in plasma ([1]; 0 hour, intravenous 1.0 μg/kg): 5.2 ± 1.3 mg/dL
- magnesium concentration in plasma ([1]; 0 hour, intravenous 1.0 μg/kg): 2.2 ± 0.2 mg/dL
- inorganic phosphorus concentration in plasma ([1]; 12 hour after intravenous 1.0 μg/kg): 7.2 ± 0.8 mg/dL
- inorganic phosphorus level in plasma ([1]; 12 hours (start of 12 to 120 hours) after intravaginal 0.25 μg/kg): 6.7 ± 0.9 mg/dL
- magnesium concentration in plasma ([1]; 12 hours after intravaginal 0.5 μg/kg): 1.9 ± 0.2 mg/dL
- inorganic phosphorus concentration in plasma [1, 6]: 7.7 ± 0.8 mg/dL
- magnesium concentration in plasma [1, 6]: 1.9 ± 0.1 mg/dL
- magnesium concentration in plasma ([1]; 24 hours after intravaginal 0.25 μg/kg): 1.8 ± 0.1 mg/dL
- inorganic phosphorus concentration in plasma ([1]; 24 hours after intravaginal 0.5 μg/kg): 7.9 ± 0.9 mg/dL
- inorganic phosphorus concentration in plasma [1, 7]: 8.0 ± 1.2 mg/dL
- magnesium concentration in plasma [1, 7]: 1.8 ± 0.2 mg/dL
- magnesium concentration in plasma ([1]; 24 hours after intravenous 1.0 μg/kg): 1.9 ± 0.3 mg/dL
- inorganic phosphorus concentration in plasma, peak ([1]; 24 hours after intravenous 1.0 μg/kg (start of peak period)): 9.1 ± 1.6 mg/dL
- calcium concentration in plasma, peak ([1]; 48 hours after intravaginal 0.125 μg/kg, significantly high 12 to 120 hours): 11.1 ± 0.9 mg/dL
- calcium concentration in plasma, peak ([1]; 48 hours after intravaginal 0.25 μg/kg, significantly high 12 to 120 hours): 11.2 ± 0.7 mg/dL
- calcium concentration in plasma, peak ([1]; 48 hours after intravaginal 0.5 μg/kg, significantly high 6 to 120 hours): 11.5 ± 0.6 mg/dL
- calcium concentration in plasma, peak ([1]; 48 hours after intravaginal 1.0 μg/kg, significantly high 6 to 120 hours): 12.0 ± 0.6 mg/dL
- inorganic phosphorus level in plasma ([1]; 120 hours (end of 12 to 120 hours) after intravaginal 0.25 μg/kg): 8.6 ± 1.2 mg/dL
- magnesium concentration in plasma ([1]; 120 hours after intravaginal 0.125 μg/kg): 1.8 ± 0.3 mg/dL
- magnesium concentration in plasma ([1]; 120 hours after intravaginal 0.25 μg/kg): 1.7 ± 0.2 mg/dL
- magnesium concentration in plasma ([1]; 120 hours after intravaginal 0.5 μg/kg): 1.7 ± 0.2 mg/dL
- magnesium concentration in plasma ([1]; 120 hours after intravaginal 1.0 μg/kg): 1.7 ± 0.4 mg/dL
- magnesium concentration in plasma ([1]; 120 hours after intravenous 1.0 μg/kg): 1.7 ± 0.2 mg/dL
- inorganic phosphorus concentration in plasma, peak ([1]; end of peak period 'from 24 hours to 12 hours' after intravenous 1.0 μg/kg): 9.0 ± 1.2 mg/dL
- dose-relationship of changes in calcium, inorganic phosphorus and magnesium concentrations in plasma [1, 8]: no dose-relationship
- calcium concentration in plasma, peak ([1]; intravenous 1.0 μg/kg): 11.5 ± 1.2 mg/dL
- excretion of calcium into urine [2]: increases
- 1,25-(OH)2D3 level in plasma, peak ([3]; 2 hours after intravaginal 0.125 μg/kg): 2219.3 ± 812.0 pg/mL
- 1,25-(OH)2D3 level in plasma, peak ([3]; 2 hours after intravaginal 0.25 μg/kg): 3448.7 ± 737.9 pg/mL
- 1,25-(OH)2D3 level in plasma, peak ([3]; 2 hours after intravaginal 0.5 μg/kg): 6388.5 ± 1127.4 pg/mL
- 1,25-(OH)2D3 level in plasma, peak ([3]; 2 hours after intravaginal 1.0 μg/kg): 12315.7 ± 2288.3 pg/mL
- bioavailability ([3]; female, Holstein, bovine, plasma, other: intravaginal, 1 μg/kg, intravaginal vs intravenous, ovariectomized cows, read-out: bioavailability, share of 1,25-(OH)2D3 administered to the vaginal lumen entering the circulatory system): ~93%
- concentration at 0 h ([3]; female, Holstein, bovine, plasma, other: intravaginal, intravaginal 0.125 μg/kg, ovariectomized cows): 7.4 ± 5.3 pg/mL
- concentration at 0 h ([3]; female, Holstein, bovine, plasma, other: intravaginal, intravaginal 0.25 μg/kg): 6.5 ± 1.3 pg/mL
- concentration at 0 h ([3]; female, Holstein, bovine, plasma, other: intravaginal, intravaginal 0.5 μg/kg): 8.7 ± 5.6 pg/mL
- concentration at 0 h ([3]; female, Holstein, bovine, plasma, other: intravaginal, intravaginal 1.0 μg/kg): 6.6 ± 1.6 pg/mL
- individual bioavailability (AUC ratio intravaginal/intravenous) ([3]; intravaginal 1.0 μg/kg vs intravenous 1.0 μg/kg, one value per each of the five cows): 71.1% and 124.2% and 113.3% and 90.0% and 66.5%
- time of peak 1,25-(OH)2D3 level in plasma after administration ([3]; intravaginal 0.125, 0.25, 0.5 and 1.0 μg/kg): 2 h
- dose dependence of absorption from the vaginal wall [3, 8]: absorbed from the vaginal wall proportionately with a dose
